From ChEMBL document CHEMBL1201862, “PubChem BioAssay data set” (2004) come the findings set out here.

What is called IC50 is the midpoint of a concentration-inhibition curve. As a reminder, the EC50 is the concentration giving half of the maximal effect.

Calls of active or inactive are those of the source.

Assay [1] deals with G-protein coupled receptor 183 (Homo sapiens, UniProt P32249). Put plainly: SAR confirmation of small molecule antagonists of the EBI2 receptor via a luminescent beta-arrestin assa. Format: functional.
Assay [2] can be described thus: viability inhibitors of stage V gametocytes – luminescence, dose response (AID 1117278).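 Further: gametocytes exposed to compound for 24 hours.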 Format: functional, cell-based.
Assay [3] is described as follows: viability loss in human Jurkat cells – cell-based, luminescence, cytotoxicity control for P. falciparum gametocyte viability project, dose response (AID 1117277).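 Further: potency reflects loss of cellular ATP meaning fewer viable cells.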 It counts as functional.
Assay [4] deals with Metabotropic glutamate receptor 7 (Homo sapiens, UniProt Q14831). The experiment in a line: potentiation of glutamate EC20 at mGlu7 – cell-based, calcium mobilization, Galpha15, dose response (AID 743384). It counts as functional.
Assay [5] addresses Glutathione-S-transferase (Schistosoma japonicum, UniProt Q26513). Put plainly: GST-antibody interaction or FRET quenching – biochemical, TR-FRET, artefact control for Vif-APOBEC3G degradation inhibitor project, dose response (AID 1117362). Format: functional. Background: TR-FRET usually uses a lanthanide donor and a delayed reading to cut background.
Assay [6] addresses T1, Tyrosine-protein phosphatase non-receptor type 7 (Homo sapiens, UniProt P35236).
T1 sequence (P35236 whole entry): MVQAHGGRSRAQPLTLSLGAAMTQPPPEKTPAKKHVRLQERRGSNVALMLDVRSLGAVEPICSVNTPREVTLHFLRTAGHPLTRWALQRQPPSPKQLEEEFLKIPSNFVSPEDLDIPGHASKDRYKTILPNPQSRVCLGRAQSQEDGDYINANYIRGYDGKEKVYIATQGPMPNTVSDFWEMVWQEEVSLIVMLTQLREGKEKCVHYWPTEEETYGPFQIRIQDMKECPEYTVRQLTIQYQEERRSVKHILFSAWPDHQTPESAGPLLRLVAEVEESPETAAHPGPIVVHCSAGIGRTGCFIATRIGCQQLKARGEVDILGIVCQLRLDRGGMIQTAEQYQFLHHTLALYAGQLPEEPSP
The experiment in a line: HePTP tyrosine phosphatase activity blockers – biochemical, absorbance, leukemia target, primary screen (AID 521). It counts as functional.

Assay [7] has as its target T2, Voltage-gated N-type calcium channel alpha-1B subunit/Amyloid beta A4 precursor protein-binding family A member 1 (Homo sapiens, UniProt Q00975+Q02410). Format: protein assay.
Assay [8] has as its target T2, Voltage-gated N-type calcium channel alpha-1B subunit/Amyloid beta A4 precursor protein-binding family A member 1. It counts as protein assay. This is another data set of the same source.
Assay [9] deals with Bifunctional protein GlmU (Mycobacterium tuberculosis, UniProt P9WMN3). The experiment in a line: Inhibitors of Mycobacterial Glucosamine-1-phosphate acetyl transferase (GlmU). Secondary screen. Also on record: species or system Mycobacterium tuberculosis H37Rv.

T2 sequence (Q00975 whole entry): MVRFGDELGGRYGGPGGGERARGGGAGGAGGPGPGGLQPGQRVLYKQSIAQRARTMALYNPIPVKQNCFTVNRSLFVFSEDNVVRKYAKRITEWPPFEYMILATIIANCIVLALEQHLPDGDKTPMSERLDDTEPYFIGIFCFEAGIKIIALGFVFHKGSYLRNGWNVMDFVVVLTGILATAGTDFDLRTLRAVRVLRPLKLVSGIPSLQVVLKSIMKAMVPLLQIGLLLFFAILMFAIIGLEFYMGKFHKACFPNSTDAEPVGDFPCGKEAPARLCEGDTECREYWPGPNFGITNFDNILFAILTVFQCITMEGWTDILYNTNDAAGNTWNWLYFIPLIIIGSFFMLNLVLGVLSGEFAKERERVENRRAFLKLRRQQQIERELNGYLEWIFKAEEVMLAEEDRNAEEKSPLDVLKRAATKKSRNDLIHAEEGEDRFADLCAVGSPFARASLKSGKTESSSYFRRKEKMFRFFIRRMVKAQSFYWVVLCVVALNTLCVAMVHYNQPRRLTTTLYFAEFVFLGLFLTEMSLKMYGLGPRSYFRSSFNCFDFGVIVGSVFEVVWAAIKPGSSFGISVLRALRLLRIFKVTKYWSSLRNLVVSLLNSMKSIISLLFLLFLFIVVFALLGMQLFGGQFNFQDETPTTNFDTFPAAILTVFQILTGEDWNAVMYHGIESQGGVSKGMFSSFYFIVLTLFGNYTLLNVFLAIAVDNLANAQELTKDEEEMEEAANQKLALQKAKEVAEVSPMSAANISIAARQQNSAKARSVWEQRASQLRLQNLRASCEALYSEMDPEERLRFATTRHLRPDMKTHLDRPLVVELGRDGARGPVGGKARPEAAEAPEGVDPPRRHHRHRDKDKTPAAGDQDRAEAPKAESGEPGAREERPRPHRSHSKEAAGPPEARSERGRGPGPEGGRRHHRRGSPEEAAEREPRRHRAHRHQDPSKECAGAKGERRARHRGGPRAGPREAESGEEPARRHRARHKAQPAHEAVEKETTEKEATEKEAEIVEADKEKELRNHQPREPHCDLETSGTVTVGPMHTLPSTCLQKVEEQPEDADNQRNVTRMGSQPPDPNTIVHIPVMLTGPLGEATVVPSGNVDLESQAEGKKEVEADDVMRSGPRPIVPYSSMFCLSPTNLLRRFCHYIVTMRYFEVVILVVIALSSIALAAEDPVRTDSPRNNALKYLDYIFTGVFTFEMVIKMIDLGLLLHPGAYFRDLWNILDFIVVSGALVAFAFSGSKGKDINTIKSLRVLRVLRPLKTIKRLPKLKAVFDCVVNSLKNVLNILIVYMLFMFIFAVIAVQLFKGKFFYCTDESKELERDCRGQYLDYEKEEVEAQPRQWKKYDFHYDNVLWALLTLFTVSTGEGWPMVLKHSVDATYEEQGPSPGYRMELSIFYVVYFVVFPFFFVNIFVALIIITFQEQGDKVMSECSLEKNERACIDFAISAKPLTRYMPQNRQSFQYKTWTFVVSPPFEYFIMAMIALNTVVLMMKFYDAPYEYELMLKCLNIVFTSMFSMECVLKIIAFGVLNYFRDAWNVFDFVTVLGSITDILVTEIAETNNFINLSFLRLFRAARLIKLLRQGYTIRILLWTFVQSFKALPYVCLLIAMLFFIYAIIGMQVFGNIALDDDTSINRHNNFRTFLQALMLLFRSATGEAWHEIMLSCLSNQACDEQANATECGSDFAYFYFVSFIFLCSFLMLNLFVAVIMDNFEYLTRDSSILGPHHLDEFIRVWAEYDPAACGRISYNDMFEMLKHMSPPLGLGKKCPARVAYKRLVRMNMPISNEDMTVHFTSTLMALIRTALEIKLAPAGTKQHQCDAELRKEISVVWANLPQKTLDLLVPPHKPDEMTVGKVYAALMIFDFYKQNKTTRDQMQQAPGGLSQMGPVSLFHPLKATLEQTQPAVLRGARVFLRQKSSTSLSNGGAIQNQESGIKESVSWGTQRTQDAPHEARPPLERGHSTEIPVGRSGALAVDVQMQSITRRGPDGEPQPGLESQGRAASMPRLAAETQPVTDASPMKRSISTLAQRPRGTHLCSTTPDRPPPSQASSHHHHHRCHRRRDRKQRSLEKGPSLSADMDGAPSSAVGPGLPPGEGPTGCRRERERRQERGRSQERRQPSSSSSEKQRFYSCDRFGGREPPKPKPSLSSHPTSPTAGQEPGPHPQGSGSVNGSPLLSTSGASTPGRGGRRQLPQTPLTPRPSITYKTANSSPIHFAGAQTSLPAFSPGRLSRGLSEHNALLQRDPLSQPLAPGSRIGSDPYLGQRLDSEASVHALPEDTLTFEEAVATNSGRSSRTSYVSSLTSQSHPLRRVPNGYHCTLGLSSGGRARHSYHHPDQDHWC
T2 sequence (Q02410 whole entry): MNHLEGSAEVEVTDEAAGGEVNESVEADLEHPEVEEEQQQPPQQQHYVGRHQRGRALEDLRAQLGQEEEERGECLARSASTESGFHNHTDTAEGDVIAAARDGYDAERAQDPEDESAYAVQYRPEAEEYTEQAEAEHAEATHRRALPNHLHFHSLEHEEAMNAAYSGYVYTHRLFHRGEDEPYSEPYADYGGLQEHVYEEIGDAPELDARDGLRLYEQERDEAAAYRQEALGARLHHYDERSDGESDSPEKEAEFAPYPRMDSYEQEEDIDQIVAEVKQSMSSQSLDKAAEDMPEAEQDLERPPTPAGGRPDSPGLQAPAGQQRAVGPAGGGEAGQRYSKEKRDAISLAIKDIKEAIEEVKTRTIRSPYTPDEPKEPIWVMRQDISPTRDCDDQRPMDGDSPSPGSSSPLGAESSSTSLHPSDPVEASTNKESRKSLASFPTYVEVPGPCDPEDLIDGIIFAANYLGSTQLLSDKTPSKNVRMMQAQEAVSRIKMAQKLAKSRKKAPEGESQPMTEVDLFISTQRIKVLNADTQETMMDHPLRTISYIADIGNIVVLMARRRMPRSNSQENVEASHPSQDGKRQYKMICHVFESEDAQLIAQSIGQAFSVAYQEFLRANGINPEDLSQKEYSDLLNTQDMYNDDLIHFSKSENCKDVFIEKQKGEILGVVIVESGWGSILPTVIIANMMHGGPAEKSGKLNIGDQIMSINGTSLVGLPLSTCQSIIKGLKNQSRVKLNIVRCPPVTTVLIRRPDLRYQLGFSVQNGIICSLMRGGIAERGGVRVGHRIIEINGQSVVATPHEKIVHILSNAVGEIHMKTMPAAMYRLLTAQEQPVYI
G-protein coupled receptor 183, sequence (P32249 whole entry): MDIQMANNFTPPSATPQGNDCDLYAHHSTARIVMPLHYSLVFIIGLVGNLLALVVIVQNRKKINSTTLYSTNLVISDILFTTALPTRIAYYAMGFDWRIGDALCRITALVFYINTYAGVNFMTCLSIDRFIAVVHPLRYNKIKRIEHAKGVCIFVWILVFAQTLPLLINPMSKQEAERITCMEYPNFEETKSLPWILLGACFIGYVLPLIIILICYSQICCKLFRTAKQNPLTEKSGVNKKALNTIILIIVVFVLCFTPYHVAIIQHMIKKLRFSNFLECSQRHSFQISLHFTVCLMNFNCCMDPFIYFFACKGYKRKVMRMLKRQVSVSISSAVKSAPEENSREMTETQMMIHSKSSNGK
Glutathione-S-transferase, sequence (Q26513 whole entry): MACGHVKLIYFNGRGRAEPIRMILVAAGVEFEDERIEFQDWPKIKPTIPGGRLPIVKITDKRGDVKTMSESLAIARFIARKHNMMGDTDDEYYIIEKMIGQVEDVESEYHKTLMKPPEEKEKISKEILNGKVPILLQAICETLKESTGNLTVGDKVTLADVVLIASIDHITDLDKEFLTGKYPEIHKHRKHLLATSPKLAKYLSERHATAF
Metabotropic glutamate receptor 7, sequence (Q14831 whole entry): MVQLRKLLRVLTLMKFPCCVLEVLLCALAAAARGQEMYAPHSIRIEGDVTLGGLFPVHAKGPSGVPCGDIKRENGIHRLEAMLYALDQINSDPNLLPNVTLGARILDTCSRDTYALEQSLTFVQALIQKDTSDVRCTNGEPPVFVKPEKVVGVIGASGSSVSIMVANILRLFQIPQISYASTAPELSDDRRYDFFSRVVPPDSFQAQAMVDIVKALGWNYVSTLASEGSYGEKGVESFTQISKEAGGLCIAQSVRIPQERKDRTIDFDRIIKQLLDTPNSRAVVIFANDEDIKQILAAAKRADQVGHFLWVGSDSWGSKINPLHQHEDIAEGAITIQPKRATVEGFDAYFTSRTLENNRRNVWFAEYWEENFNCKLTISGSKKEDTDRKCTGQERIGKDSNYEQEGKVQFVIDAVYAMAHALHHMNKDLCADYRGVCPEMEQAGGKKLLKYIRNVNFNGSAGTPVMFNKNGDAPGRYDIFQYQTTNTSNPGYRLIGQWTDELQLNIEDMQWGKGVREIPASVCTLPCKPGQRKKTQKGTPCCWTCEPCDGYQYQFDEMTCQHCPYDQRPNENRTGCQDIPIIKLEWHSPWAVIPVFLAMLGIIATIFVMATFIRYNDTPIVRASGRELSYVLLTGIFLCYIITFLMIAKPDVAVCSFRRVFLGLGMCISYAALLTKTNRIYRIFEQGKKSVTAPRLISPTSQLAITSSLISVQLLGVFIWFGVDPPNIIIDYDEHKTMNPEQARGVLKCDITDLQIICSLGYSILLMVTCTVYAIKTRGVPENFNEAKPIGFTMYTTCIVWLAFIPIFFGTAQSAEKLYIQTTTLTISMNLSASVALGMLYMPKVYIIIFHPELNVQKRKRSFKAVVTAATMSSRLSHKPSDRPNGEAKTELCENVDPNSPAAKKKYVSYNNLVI

Regarding `CCN1CCN(C(=O)/C=C/c2ccc(Br)cc2)CC1`, the half-maximal inhibitory concentration (IC50) in assay [1] is 0.0158 µM (active).

On to `CN(C)S(=O)(=O)N1CCC(Oc2ccc(C(=O)NCc3cnn(C)c3)cc2)CC1`, for which the IC50 was > 109 µM (inactive) in [2] and > 83.3 µM (inactive) in [3].

For the molecule `CCOc1ccc(-n2c(C)cc(C(=O)CSCc3cccc(C)c3)c2C)cc1`, in assay [4], the EC50 was 10 µM (active).

For the molecule `O=[N+]([O-])c1ccc(-c2ccc(/C=N/c3c(-c4ccco4)nc4ccccn34)o2)cc1`, the half-inhibitory concentration (IC50) in assay [5] is 50.3 µM (active).

On to `CC(C)(C#N)Nc1ccccc1`, for which, in assay [6], the IC50 is > 100 µM (not active).

In the case of `N=C1/C(=C\c2ccc(-c3ccc(C(=O)O)cc3)o2)C(=O)N=C2SC=C(c3ccccc3)N12`, the IC50 in [7] is 29.2 µM (active); in assay [8] it was 4.12 µM (active); in [9], 182 µM (active).
